Data: paper PMC4200806, “A Combined Experimental and Computational Study of Vam3, a Derivative of Resveratrol, and Syk Interaction” (International Journal of Molecular Sciences, 2014)

Target: Spleen tyrosine kinase (Syk) (Homo sapiens, UniProt P43405)
Assay: in vitro kinase assay with purified recombinant Syk (ADP-Glo, poly(Glu,Tyr) substrate); Ki from ATP-competition kinetics; IC50 […]
Format: biochemical

Oc1ccc(/C=C/c2cc(O)cc3oc(-c4ccc(O)cc4)c(-c4cc(O)cc(O)c4)c23)cc1 [Vam3] was tested, and the Ki was 0.0611 µM.
